The values below come from patent US9955691B2, “Macrocyclic picolinamides as fungicides” (DOW AGROSCIENCES LLC, priority 2014, dated 2018).

Molecules are shown by their SMILES. Read-outs that look alike come from different tables or passages of the source.

For experiment [1], the system named is Puccinia triticina. The experiment in a line: Fungicidal activity: Wheat Brown Rust (PUCCRT). Format: in vivo. To be noted: for pest or weed control at 100 µg/mL: High Volume (100 ppm); for pest or weed control at 121.5 g/ha: Low Volume (121.5 g/H). The procedure: (§1) Technical grades of materials were dissolved in acetone, which were then mixed with nine volumes of water containing 110 ppm Triton X-100. The fungicide solutions were applied onto wheat seedlings using an automated booth sprayer to run-off. All sprayed plants were allowed to air dry prior to further handling. All fungicides were evaluated using the aforementioned method for their activity vs. all target diseases, unless stated otherwise. Wheat leaf blotch and brown rust activity were also evaluated using track spray applications, in which case the fungicides were formulated as EC formulations, containing 0.1% Trycol 5941 in the spray solutions. Wheat plants (variety Yuma) were grown from seed in a greenhouse in 50% mineral soil/50% soil-less Metro mix until the first leaf was fully emerged, with 7-10 seedlings per pot. These plants were inoculated with an aqueous spore suspension of Septoria tritici either prior to or after fungicide treatments. After inoculation the plants were kept in 100% relative humidity (one day in a dark dew chamber followed by two to three days in a lighted dew chamber at 20° C.) to permit spores to germinate and infect the leaf. The plants were then transferred to a greenhouse set at 20° C. for disease to develop. When disease symptoms were fully expressed on the 1st leaves of untreated plants, infection levels were assessed on a scale of 0 to 100 percent disease severity. Percent disease control was calculated using the ratio of disease severity on treated plants relative to untreated plants. Evaluation of Fungicidal Activity: Wheat Brown Rust (Puccinia triticina; Synonym: Puccinia recondite f. Sp. Tritici; Bayer Code PUCCRT) Wheat plants (variety Yuma) were grown from seed in a greenhouse in 50% mineral soil/50% soil-less Metro mix until the first leaf was fully emerged, with 7-10 seedlings per pot. These plants were inoculated with an aqueous spore suspension of Puccinia triticina either prior to or after fungicide treatments. After inoculation the plants were kept in a dark dew room at 22° C. with 100% relative humidity overnight to permit spores to germinate and infect the leaf. The plants were then transferred to a greenhouse set at 24° C. for disease to develop. Fungicide formulation, application and disease assessment followed the procedures as described in the Example A.

For experiment [2], the system named is Mycosphaerella graminicola; Anamorph: Septoria tritici. Kind of experiment: Fungicidal activity: Leaf Blotch of Wheat (SEPTTR). Format: in vivo. The following applies: Zymoseptoria tritici, wheat leaf blotch; for pest or weed control at 100 µg/mL: High Volume (100 ppm); for pest or weed control at 121.5 g/ha: Low Volume (121.5 g/H). The procedure: as §1, with “Evaluation of Fungicidal Activity: Leaf Blotch of Wheat (Mycosphaerella graminicola; Anamorph: Septoria tritici; Bayer Code […]) Technical” for “Technical”, “plants.” for “plants. Evaluation of Fungicidal Activity: Wheat Brown Rust (Puccinia triticina; Synonym: Puccinia recondite f. Sp. Tritici; Bayer Code PUCCRT) Wheat plants (variety Yuma) were grown from seed in a greenhouse in 50% mineral soil/50% soil-less Metro mix until the first leaf was fully emerged, with 7-10 seedlings per pot. These plants were inoculated with an aqueous spore suspension of Puccinia triticina either prior to or after fungicide treatments. After inoculation the plants were kept in a dark dew room at 22° C. with 100% relative humidity overnight to permit spores to germinate and infect the leaf. The plants were then transferred to a greenhouse set at 24° C. for disease to develop. Fungicide formulation, application and disease assessment followed the procedures as described in the Example A.”

[3] abbreviates: 24 h, 1 Day Protectant, read-out: PUCCRT 1 DP disease control.
Where [4] appears, read: 72 h, 3 Day Curative, read-out: PUCCRT 3 DC disease control.
Where [5] appears, read: 24 h, 1 Day Protectant, read-out: SEPTTR 1 DP disease control.
The mark [6] stands for this setting: 72 h, 3 Day Curative, read-out: SEPTTR 3 DC disease control.

For `COc1ccnc(C(=O)N[C@H]2COC[C@@H]3CCCC[C@H]3[C@@H](C)OC2=O)c1O` [compound 114], the pest or weed control at 100 µg/mL is greater than 70% in experiment [1] (setting [3]), greater than 70% in experiment [1] (setting [4]), greater than 70% in experiment [2] (setting [5]) and less than 70% in experiment [2] (setting [6]).
Consider `COc1ccnc(C(=O)N[C@H]2COC[C@H](CCC(C)C)[C@@H](Cc3ccccc3)[C@H](C)OC2=O)c1OC(C)=O` [compound 46], for which the pest or weed control at 121.5 g/ha in experiment [1] (setting [3]), in experiment [1] (setting [4]), in experiment [2] (setting [5]) and in experiment [2] (setting [6]) was greater than 70% in each case.
Turning to `COc1ccnc(C(=O)N[C@H]2COC[C@H](Cc3ccccc3)[C@@H](C3CCCC3)[C@H](C)OC2=O)c1OCOC(C)=O` [compound 38], the pest or weed control at 121.5 g/ha in experiment [1] (setting [3]), in experiment [1] (setting [4]), in experiment [2] (setting [5]) and in experiment [2] (setting [6]) was greater than 70% each time.
Turning to `CCCC[C@@H]1[C@@H](Cc2ccccc2)COC[C@H](NC(=O)c2nccc(OC)c2O)C(=O)O[C@H]1C` [compound 110], the pest or weed control at 100 µg/mL is less than 70% in experiment [1] (setting [3]), less than 70% in experiment [1] (setting [4]), greater than 70% in experiment [2] (setting [5]) and greater than 70% in experiment [2] (setting [6]).
`CCOCC(=O)OCOc1c(OC)ccnc1C(=O)N[C@H]1COC[C@H](Cc2ccccc2)[C@@H](c2ccccc2)[C@H](C)OC1=O` [compound 51]: the pest or weed control at 121.5 g/ha in experiment [1] (setting [3]) was greater than 70%; in experiment [1] (setting [4]) it was less than 70%; in experiment [2] (setting [5]), greater than 70%; in experiment [2] (setting [6]), less than 70%.
Regarding `COc1ccnc(C(=O)N[C@H]2COC[C@H](Cc3ccccc3)[C@@H](Cc3ccc(OC(F)(F)F)cc3)[C@H](C)OC2=O)c1OCOC(C)=O` [compound 49], the pest or weed control at 121.5 g/ha in experiment [1] (setting [3]) is greater than 70%; in experiment [1] (setting [4]) it was less than 70%; in experiment [2] (setting [5]), greater than 70%; in experiment [2] (setting [6]), less than 70%.
In the case of `COc1ccnc(C(=O)N[C@H]2COC[C@H](Cc3ccccc3)[C@@H](CCc3ccccc3)[C@H](C)OC2=O)c1OCOC(=O)C(C)C` [compound 31], the pest or weed control at 121.5 g/ha in experiment [1] (setting [3]), in experiment [1] (setting [4]), in experiment [2] (setting [5]) and in experiment [2] (setting [6]) was greater than 70% each time.
Take `COc1ccnc(C(=O)N[C@H]2COC[C@H](Cc3ccccc3)[C@@H](COCC(C)C)[C@H](C)OC2=O)c1O` [compound 121]: the pest or weed control at 100 µg/mL was less than 70% in experiment [1] (setting [3]), less than 70% in experiment [1] (setting [4]), less than 70% in experiment [2] (setting [5]) and greater than 70% in experiment [2] (setting [6]).
Consider `COc1ccnc(C(=O)N[C@H]2COC[C@H](CC3CC3)[C@@H](Cc3ccc(F)cc3)[C@H](C)OC2=O)c1O` [compound 153], for which the pest or weed control at 100 µg/mL in experiment [1] (setting [3]), in experiment [1] (setting [4]), in experiment [2] (setting [5]) and in experiment [2] (setting [6]) was greater than 70% throughout.
`COc1ccnc(C(=O)N[C@H]2COC[C@@H]3CCCC[C@H]3[C@H](C)OC2=O)c1OCOC(C)=O` [compound 6]: the figures for the pest or weed control at 100 µg/mL in experiment [1] (setting [3]), in experiment [2] (setting [5]) and in experiment [2] (setting [6]) were greater than 70%, less than 70% and less than 70%, respectively.
For `COc1ccnc(C(=O)N[C@H]2COC[C@H](CCC(C)C)[C@@H](CCc3ccccc3)[C@H](C)OC2=O)c1OC(C)=O` [compound 33], the pest or weed control at 121.5 g/ha in experiment [1] (setting [3]), in experiment [1] (setting [4]), in experiment [2] (setting [5]) and in experiment [2] (setting [6]) was greater than 70% each time.
Consider `COc1ccnc(C(=O)N[C@H]2COC[C@H](CCCc3ccccc3)[C@@H](Cc3ccccc3)[C@H](C)OC2=O)c1OCOC(=O)C(C)C` [compound 43], for which the pest or weed control at 121.5 g/ha in experiment [1] (setting [3]) was greater than 70%; in experiment [1] (setting [4]), less than 70%; in experiment [2] (setting [5]) it was greater than 70%; in experiment [2] (setting [6]), greater than 70%.
Take `CCC[C@H]1COC[C@H](NC(=O)c2nccc(OC)c2OCOC(C)=O)C(=O)O[C@@H](C)[C@@H]1Cc1ccccc1` [compound 23]: the pest or weed control at 121.5 g/ha in experiment [1] (setting [3]), in experiment [1] (setting [4]), in experiment [2] (setting [5]) and in experiment [2] (setting [6]) was greater than 70% in each case.
As for `COc1ccnc(C(=O)N[C@H]2COC[C@H](Cc3ccccc3)[C@@H](C3CCCC3)[C@H](C)OC2=O)c1OC(C)=O` [compound 37], the pest or weed control at 121.5 g/ha in experiment [1] (setting [3]), in experiment [1] (setting [4]), in experiment [2] (setting [5]) and in experiment [2] (setting [6]) was greater than 70% each time.
Turning to `COc1ccnc(C(=O)N[C@H]2COC[C@H](Cc3ccc(C(F)(F)F)cc3)[C@@H](Cc3ccccc3)[C@H](C)OC2=O)c1OC(C)=O` [compound 55], the pest or weed control at 121.5 g/ha in experiment [1] (setting [3]), in experiment [1] (setting [4]), in experiment [2] (setting [5]) and in experiment [2] (setting [6]) was greater than 70% in each case.
Take `COc1ccnc(C(=O)N[C@H]2COC[C@H](Cc3ccc(C(F)(F)F)cc3)[C@@H](Cc3ccc(F)cc3)[C@H](C)OC2=O)c1OC(C)=O` [compound 79]: the pest or weed control at 121.5 g/ha in experiment [1] (setting [3]) is greater than 70%; in experiment [1] (setting [4]), less than 70%; in experiment [2] (setting [5]), greater than 70%; in experiment [2] (setting [6]), less than 70%.
Regarding `COc1ccnc(C(=O)N[C@H]2COC[C@H](CC3CC3)[C@@H](c3ccccc3)[C@H](C)OC2=O)c1OCOC(C)=O` [compound 101], the pest or weed control at 121.5 g/ha in experiment [1] (setting [3]), in experiment [1] (setting [4]), in experiment [2] (setting [5]) and in experiment [2] (setting [6]) was greater than 70% throughout.
With `COc1ccnc(C(=O)N[C@H]2COC[C@H](CC3CCCC3)[C@@H](CC3CCCC3)[C@H](C)OC2=O)c1O` [compound 127], the pest or weed control at 100 µg/mL in experiment [1] (setting [3]), in experiment [1] (setting [4]), in experiment [2] (setting [5]) and in experiment [2] (setting [6]) was greater than 70% each time.
With `COc1ccnc(C(=O)N[C@H]2COC[C@H](CCCc3ccccc3)[C@@H](CC(C)C)[C@H](C)OC2=O)c1O` [compound 144], the pest or weed control at 100 µg/mL in experiment [1] (setting [3]), in experiment [1] (setting [4]), in experiment [2] (setting [5]) and in experiment [2] (setting [6]) was greater than 70% throughout.
Take `COc1ccnc(C(=O)N[C@H]2COC[C@H](Cc3ccc(Cl)cc3)[C@@H](CC(C)C)[C@H](C)OC2=O)c1OC(C)=O` [compound 75]: the pest or weed control at 121.5 g/ha was greater than 70% in experiment [1] (setting [3]), less than 70% in experiment [1] (setting [4]), greater than 70% in experiment [2] (setting [5]) and greater than 70% in experiment [2] (setting [6]).
For `COc1ccnc(C(=O)N[C@H]2COC[C@H](Cc3ccccc3)[C@@H](CC(C)C)[C@H](C)OC2=O)c1O` [compound 125], the pest or weed control at 100 µg/mL in experiment [1] (setting [3]) was greater than 70%; in experiment [1] (setting [4]) it was less than 70%; in experiment [2] (setting [5]), less than 70%; in experiment [2] (setting [6]) it was less than 70%.
